Patent US12686666B2, “Triazine compound salt, crystal form thereof, and production method therefor” (TANABE PHARMA CORPORATION, priority 2020, dated 2026)

Tests used:
Assay type in all cases: physicochemical
[1] = Thermal stability evaluation (TG/DTA weight change)
Procedure: Thermal stability was measured and evaluated by using a thermogravimetry/differential thermal analyzer TG/DTA7200 (SII NanoTechnology Inc.) under the following conditions. • Rate of temperature increase: 10° C./min • Range of temperature increase: 25 to 300° C. • Atmosphere: nitrogen 200 mL/min <Hygroscopicity or Deliquescency Evaluation>
Thermal stability was measured and evaluated by using a thermogravimetry/differential thermal analyzer TG/DTA7200 (SII NanoTechnology Inc.) under the following conditions • Rate of temperature increase: 10° C./min • Range of temperature increase: 30 to 300° C. • Atmosphere: nitrogen 200 mL/min • or • using a TGA/DSC1 thermogravimetric analyzer (manufactured by Mettler Toledo, STARe system) under the following conditions. • Rate of temperature increase: 10° C./min • Range of temperature increase: 25 to 300° C. • Atmosphere: nitrogen 50 mL/min <Hygroscopicity or Deliquescency Evaluation>

[2] = Hygroscopicity or deliquescency evaluation (moisture adsorption, DVS)
Procedure: Hygroscopicity or deliquescency was evaluated as follows by using a moisture adsorption measurement device DVS-1 or DVS-intrinsic (Surface Measurement Systems Limited). Each sample (about 5 mg) was placed into an aluminum plate of which the tare weight had been corrected in advance, and the plate was hung on the precision balance of said device to precisely measure the weight at the start of measurement. The humidity was changed in a stepwise manner in a chamber at 25° C., the weight change was recorded with time, and the equilibrium weight was calculated at each humidity. On the basis of the weight at a dried condition (0% RH), the weight change rate and hydration number at each humidity were calculated.
Hygroscopicity or deliquescency was evaluated as follows by using a moisture adsorption measurement device DVS-1 or DVS-intrinsic (Surface Measurement Systems Limited). Each sample was placed into a cell of which the tare weight had been corrected in advance, and the cell was hung on the precision balance of said device to precisely measure the weight at the start of measurement. The humidity was changed in a stepwise manner, the weight change was recorded with time, and the equilibrium weight was calculated at each humidity. On the basis of the weight of anhydride converted from the amount of water at a dried condition (0% RH) or at the start of measurement observed by an alternative method, the weight change rate at each humidity was calculated.

[3] = Chemical stability evaluation (storage 1 week, liquid chromatography peak area %)
Procedure: Each about 1 mg of a sample stored at 60° C. (sealed) or 60° C./75% RH (open) for 1 week and an unstored sample (at the start of test) was dissolved into a mixed solution of acetonitrile/water (1:1) (5 mL) to obtain each sample solution. A test was carried out by liquid chromatographic method under the following conditions to measure each peak area (%).
Each peak area (%) was measured by using Waters ACQUITY UPLC under the following conditions. • Detector: Photodiode array (measurement wavelength: 239 nm) • Column: Waters ACQUITY BEH C18 (2.1 mm×100 mm, 1.7 μm) • Column temperature: constant temperature about 40° C. • Mobile phase: Solution A; water/TFA (2000:1), Solution B; Acetonitrile/TFA (2000:1) • Concentration gradient control: B % 2→100% (15 minutes) • Flow rate: 0.5 mL/min • Injection volume: 2 μL
Each sample was stored at 60° C. under a sealed condition and at 60° C. under 75% RH for 1 week, and an increase or decrease of related substance(s) after the storage was calculated by high-performance liquid chromatographic method on the basis of the area percentage of each peak. Also, the condition of each sample after the storage was observed.

CC(=O)NC1CCC(NC(=O)CN2CCN(c3nncc(-c4ccc(C)cc4)n3)CC2)CC1.Cc1ccc(S(=O)(=O)O)cc1.Cc1ccc(S(=O)(=O)O)cc1 (stereo not shown) [Tosilate Form C crystal]
Thermal stability TG: weight change ([1]; 25° C.-melting point): 1.2%
Thermal stability, conclusion in words ([1]; did not show a significant weight change (Succinate Form A: at 25 to 148° C., melting point)): excellent thermal stability
Hygroscopicity or Deliquescency Weight change at 90% RH ([2]; Table 5, 25° C., 90% RH, relative to weight at 0% RH): 1.4%
Hygroscopicity or deliquescency, conclusion in words ([2]; from Table 5): excellent in the reduced hygroscopicity or deliquescency
Chemical stability 60° C., 75% RH, 1 week (open) ([3]; Table 5, change of related substances (peak area %) vs start): 0.39%
Chemical stability 60° C. (sealed) ([3]; Table 5, stored 1 week at 60° C. sealed, change of related substances (peak area %) vs start): 0.04%
Chemical stability, conclusion in words ([3]; did not show a significant increase of related substances): excellent chemical stability
